Structures are written as SMILES. Where two headings read alike, the source gives them in different places.

Here are results for 66 compounds from patent publication US10011573B2, “Human androgen receptor DNA-binding domain (DBD) compounds as therapeutics and methods for their use” (The University of British Columbia, priority 2014, dated 2018).

The experiment addresses T1, androgen receptor (AR) (Homo sapiens, UniProt P10275, T878A).
T1 sequence (P10275 1-920 T878A): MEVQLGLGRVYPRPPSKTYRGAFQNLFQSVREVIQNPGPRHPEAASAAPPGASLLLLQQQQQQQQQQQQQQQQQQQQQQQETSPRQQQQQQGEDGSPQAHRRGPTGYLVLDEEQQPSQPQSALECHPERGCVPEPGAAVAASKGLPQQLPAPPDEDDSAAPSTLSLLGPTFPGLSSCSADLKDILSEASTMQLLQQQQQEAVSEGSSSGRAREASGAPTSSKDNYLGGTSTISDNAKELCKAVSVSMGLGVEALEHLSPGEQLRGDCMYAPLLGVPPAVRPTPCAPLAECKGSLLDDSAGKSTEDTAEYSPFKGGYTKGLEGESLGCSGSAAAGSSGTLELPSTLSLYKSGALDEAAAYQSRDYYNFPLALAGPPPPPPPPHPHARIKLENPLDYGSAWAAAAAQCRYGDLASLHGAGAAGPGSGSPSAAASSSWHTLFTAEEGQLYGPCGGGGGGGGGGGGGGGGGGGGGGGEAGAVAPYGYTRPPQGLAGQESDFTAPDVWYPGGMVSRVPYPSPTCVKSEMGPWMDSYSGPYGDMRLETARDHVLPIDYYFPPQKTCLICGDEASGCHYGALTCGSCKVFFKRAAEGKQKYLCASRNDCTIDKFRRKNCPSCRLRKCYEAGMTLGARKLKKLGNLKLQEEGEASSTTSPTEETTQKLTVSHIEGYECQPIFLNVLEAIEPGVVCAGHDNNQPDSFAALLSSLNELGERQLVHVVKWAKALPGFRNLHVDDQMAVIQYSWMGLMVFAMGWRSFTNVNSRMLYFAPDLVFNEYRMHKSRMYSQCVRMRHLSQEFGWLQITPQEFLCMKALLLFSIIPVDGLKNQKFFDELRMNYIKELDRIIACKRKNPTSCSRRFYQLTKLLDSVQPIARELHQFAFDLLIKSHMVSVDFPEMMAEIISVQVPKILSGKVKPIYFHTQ
Description: eGFP cellular AR transcription assay (LNCaP eGFP cells, LN-ARR2PB-eGFP). The note with it: for inhibition at 3 µM: LNCaP, read-out: % Inhibition (3 μM); for IC50: eGFP IC50 (μM); for anti-AR activity (AR transcriptional inhibition) in words: LNCaP (T877A AR); for eGFP IC50: 0.1 nM R1881.

In the case of `NC(=S)N/N=C1\Cc2cccc3cccc1c23` [Compound 14005], the inhibition (as a rule, the relative decrease from the control value, in per cent) at 3 µM was 92.5%. Also, the IC50 (usually the concentration at which inhibition is half-maximal) (LNCaP eGFP cells) came out at 2 µM.
For the compound `COc1cc(C)c2occ(/C(C)=N/O)c2c1` [Compound 14017], the IC50 (LNCaP eGFP cells) is 41.6 µM.
`c1ccc2cc(-n3ccnc3)ccc2c1` [Compound 14018]: inhibition (LNCaP eGFP cells) was half-maximal at 13.9 µM (IC50).
The compound `c1cc2c3c(ccc(-c4ccn[nH]4)c3c1)CC2` [Compound 14053] showed a half-inhibitory concentration (IC50) (LNCaP eGFP cells) of 4 µM.
Under “LNCaP eGFP cells”, `CCSc1ccc(-c2cc(C)nc(N)n2)cc1` [Compound 14055] had an IC50 of 10 µM.
In turn, `Cc1ccccc1CN1C(=O)NC2C=CC=CC21` (centres unmarked) [Compound 14065] had an IC50 (LNCaP eGFP cells) of 10 µM.
Regarding `C[C@@H]1C(=O)N(c2ccccc2)C2C=CC=CC21` (some centres unmarked) [Compound 14078], the inhibition at 3 µM was 65.4%. This compound displayed an IC50 (LNCaP eGFP cells) of 20 µM.
In the case of `Nc1ccccc1CN1C(=O)Cc2ccccc21` [Compound 14082], the inhibition at 3 µM amounted to 93.1%. The same compound yielded a half-inhibitory concentration (IC50) (LNCaP eGFP cells) of 9.5 µM.
For the compound `Oc1ccccc1/C=C/c1ccccn1` [Compound 14088], the IC50 (LNCaP eGFP cells) stood at 3.54 µM.
Turning to `c1ccc2c(N3CCOCC3)nccc2c1` [Compound 14112], the inhibition at 3 µM was 9%.
For `c1ccc2oc(-c3csc(N4CCOCC4)n3)cc2c1` [Compound 14136], the “% Inhibition (3 μM)” value was found to be 40.98%.
As to `c1ccc2sc(-c3csc(N4CCOCC4)n3)nc2c1` [Compound 14137], the “% Inhibition (3 μM)” value came out at 37.44%.
As to `NC(=S)N/N=C1\C(=O)c2cccc3cccc1c23` [Compound 14151], where the note is “LNCaP eGFP cells”, it took 30 µM to reach half-maximal inhibition (IC50). This counts as double-digit micromolar.
Turning to `CNC(=S)N/N=C1\C(=O)c2cccc3cccc1c23` [Compound 14153], the 50% inhibitory concentration (IC50) (LNCaP eGFP cells) was found to be 6 µM.
Regarding `c1ccc2c(-n3ccnc3)cccc2c1` [Compound 14163], the IC50 (LNCaP eGFP cells) came out at 24 µM.
Turning to `NC(=S)N/N=C/c1cccc2ccccc12` [Compound 14164], the inhibition at 3 µM turned out to be 86.8%. The same compound showed an IC50 (LNCaP eGFP cells) of 3.04 µM.
Turning to `C/C(=N/O)c1ccc2c(C)ccc3c2c1CC3` [Compound 14171], the inhibition at 3 µM amounted to 99.6%. This compound showed an IC50 (LNCaP eGFP cells) of 3.38 µM.
As to `NC(=S)NN=C(c1ccccc1)c1ccccc1` [Compound 14172], the inhibition at 3 µM was 46.4%. This compound showed an IC50 (LNCaP eGFP cells) of 29.4 µM.
For `NC(=S)N/N=C1\CCCc2ccccc21` [Compound 14175], the inhibition at 3 µM came out at 45.5%. The compound further displayed an IC50 (LNCaP eGFP cells) of 13.6 µM.
With `Nc1nc(-c2ccc3c(c2)CCCC3)cs1` [Compound 14198], the inhibition at 3 µM came out at 54.4%. Where the note is “LNCaP eGFP cells”, this compound yielded an IC50 of 5.51 µM.
As for `NC(=S)NN=C1c2ccccc2-c2ccccc21` [Compound 14205], the inhibition at 3 µM came to 45.8%. For the same compound, for the setting “LNCaP eGFP cells”, 7.38 µM corresponded to half-maximal inhibition (IC50).
As for `C/C(=N\NC(N)=S)c1ccc2c3c(cccc13)CC2` [Compound 14206], the inhibition at 3 µM amounted to 109%. Also, the IC50 (LNCaP eGFP cells) stood at 3.4 µM.
`c1ccc2c(-c3csc(N4CCOCC4)n3)cccc2c1` [Compound 14230]: the inhibition at 3 µM turned out to be 99.5%. Also, under “Series 1”, it took 1.61 µM to reach half-maximal inhibition (IC50).
On to `c1ccc2cc(-c3csc(N4CCOCC4)n3)ccc2c1` [Compound 14231], for which the “% Inhibition (3 μM)” value amounted to 38.78%.
With `CC1CN(c2nc(-c3ccc([N+](=O)[O-])cc3)cs2)C(C)CO1` (centres unmarked) [Compound 14247], the “% Inhibition (3 μM)” value was determined as 3.73%.
Turning to `CC1CN(c2nc(-c3ccc(Cl)cc3)cs2)C(C)CO1` (centres unmarked) [Compound 14248], the “% Inhibition (3 μM)” value is listed as 4.73%.
Take `COc1ccc(-c2csc(N3CCOCC3)n2)cc1` [Compound 14249]: the “% Inhibition (3 μM)” value is 45.16%.
`Brc1ccc(-c2csc(N3CCOCC3)n2)cc1` [Compound 14251]: the “% Inhibition (3 μM)” value was 7.96%.
As for `COc1ccc(-c2csc(N3CCOCC3)n2)cc1OC` [Compound 14252], the “% Inhibition (3 μM)” value came out at 26.03%.
`Clc1ccc(-c2csc(N3CCOCC3)n2)cc1` [Compound 14253]: the inhibition at 3 µM came to 38.2%. Also, the IC50 (Series 1) turned out to be 39.9 µM.
For the compound `O=[N+]([O-])c1ccc(-c2csc(N3CCOCC3)n2)cc1` [Compound 14254], the inhibition at 3 µM worked out at 3.37%. This compound showed an IC50 (Series 1) of 15.8 µM.
On to `Nc1ccc(-c2csc(N3CCOCC3)n2)cc1` [Compound 14256], for which the “% Inhibition (3 μM)” value came to 28.14%.
Regarding `CCc1ccc(-c2csc(N3CCOCC3)n2)cc1` [Compound 14259], the “% Inhibition (3 μM)” value is given as 26.26%.
In the case of `N#Cc1ccc(-c2csc(N3CCOCC3)n2)cc1` [Compound 14261], for the setting “3 µM”, the “% Inhibition (3 μM)” value was determined as 25.48%.
For the compound `Oc1ccc(-c2csc(N3CCOCC3)n2)cc1O` [Compound 14267], the “% Inhibition (3 μM)” value is 19.95%.
On to `COc1ccc(-c2csc(N3CCOCC3)n2)c(OC)c1` [Compound 14268], for which the “% Inhibition (3 μM)” value is 37.55%.
As for `OCc1sc(N2CCOCC2)nc1-c1ccccc1` [Compound 14274], the “% Inhibition (3 μM)” value came out at 5.04%.
For `CS(=O)(=O)Nc1ccc(-c2csc(N3CCOCC3)n2)cc1` [Compound 14276], the “% Inhibition (3 μM)” value was found to be 25.98%.
With `CS(=O)(=O)c1ccc(-c2csc(N3CCOCC3)n2)cc1` [Compound 14277], the “% Inhibition (3 μM)” value came to 12.71%.
The same measure, in the same setting: with `c1cc2c(cc1-c1csc(N3CCOCC3)n1)COC2` [Compound 14282] the figure was 29.04%.
In the case of `Cc1ccc(-c2csc(N3CCOCC3)n2)c(C)c1` [Compound 14283], the “% Inhibition (3 μM)” value came to 38.89%.
Regarding `Cc1ccc(-c2nc(N3CCOCC3)sc2C)cc1` [Compound 14284], the “% Inhibition (3 μM)” value stood at 30.22%.
As to `Fc1ccccc1-c1csc(N2CCOCC2)n1` [Compound 14286], the “% Inhibition (3 μM)” value is reported as 85.86%.
Turning to `c1cc2c(cc1-c1csc(N3CCOCC3)n1)CCCC2` [Compound 14291], the “anti-AR activity (AR transcriptional inhibition) in words” value is “lost their anti-AR activity” and the inhibition at 3 µM came out at 18.6%. In addition, where the note is “LNCaP eGFP cells”, the “eGFP IC50” value is reported as “Low activity”.
On to `Cc1ccc(-c2csc(N3CCOCC3)n2)cc1C` [Compound 14294], for which the inhibition at 3 µM was 40%. In addition, the IC50 (Series 1) turned out to be 10.3 µM.
In the case of `Oc1ccc(-c2csc(N3CCOCC3)n2)c(O)c1` [Compound 14295], the “% Inhibition (3 μM)” value was 24.7%.
`CSc1ccc(-c2csc(N3CCOCC3)n2)cc1` [Compound 14297]: the “% Inhibition (3 μM)” value is given as 109.99%.
Consider `CC1CCCN(c2nc(-c3ccc(O)cc3O)cs2)C1` (centres unmarked) [Compound 14301], for which the inhibition at 3 µM turned out to be 60%. Under “Series 1”, this compound yielded a concentration for half-maximal inhibition (IC50) of 5 µM.
Regarding `Nc1cccc(-c2ccc3ccccc3n2)c1` [Compound 14321], the inhibition at 3 µM came to 66.5%.
Take `Oc1ccccc1-c1ccc2cccnc2n1` [Compound 14336]: the inhibition at 3 µM is 27.1%.
For the compound `CN1CCN(c2nc(-c3ccccc3)cs2)CC1` [Compound 14338], the “% Inhibition (3 μM)” value was found to be 19.33%.
Regarding `NC(=O)N1CCN(c2nc(-c3ccccc3)cs2)CC1` [Compound 14339], the “% Inhibition (3 μM)” value stood at 15.82%.
Regarding `Fc1ccc(-c2csc(N3CCNCC3)n2)cc1` [Compound 14340], the “% Inhibition (3 μM)” value is 16.12%.
In the case of `Cc1sc(N2CCOCC2)nc1-c1ccc(F)cc1` [Compound 14341], the “% Inhibition (3 μM)” value worked out at 43.7%.
Turning to `COc1cccc(-c2csc(-c3ccccn3)n2)c1` [Compound 14343], the “% Inhibition (3 μM)” value turned out to be 16.12%.
The compound `Cc1sc(N2CCOCC2)nc1-c1ccccc1` [Compound 14349] showed an IC50 (Series 1) of 1.47 µM.
`c1ccc(-c2csc(N3CCCC3)n2)cc1` [Compound 14351]: the “% Inhibition (3 μM)” value worked out at 38.4%.
With `c1ccc(-c2csc(-c3c[nH]c4ccccc34)n2)cc1` [Compound 14361], the inhibition at 3 µM is 41.6%. The IC50 (Series 1) was determined as 10.1 µM.
Regarding `COc1ccccc1-c1nc(N2CCOCC2)sc1C` [Compound 14363], the “% Inhibition (3 μM)” value amounted to 29.03%.
For the setting “Series 1”, `c1ccc(-c2csc(N3CCSCC3)n2)cc1` [Compound 14385] registered a 50% inhibitory concentration (IC50) of 0.6 µM. This counts as sub-micromolar.
Consider `Fc1ccc(-c2csc(N3CCSCC3)n2)cc1` [Compound 14386], for which, for the setting “Series 1”, the IC50 turned out to be 1.6 µM.
For the compound `Nc1ccc2nc(-c3cccc(O)c3)sc2c1` [Compound 14387], the inhibition at 3 µM was found to be 109%. The compound further had an IC50 (LNCaP eGFP cells) of 14.8 µM.
Taken in the same sequence, the figures for `OCc1cccc(-c2ccc3ccccc3n2)c1` [Compound 14388] were 44.9% and 10.4 µM.
On to `NC(=O)c1ccc(-c2ccc3ccccc3n2)cc1` [Compound 14389], for which the inhibition at 3 µM was 14.5%.
`c1ccc2sc(N3CCOCC3)nc2c1` [Compound 14393]: the inhibition at 3 µM stood at 31.2%. The same compound displayed an IC50 (LNCaP eGFP cells) of 46.6 µM.
In the case of `c1sc(N2CCOCC2)nc1C1CCCC1` [Compound 14403], the “anti-AR activity (AR transcriptional inhibition) in words” value is on record as “lost their anti-AR activity” and the inhibition at 3 µM was determined as 22%. Further, under “LNCaP eGFP cells”, the “eGFP IC50” value is recorded as “Low activity”.
